{
  "source": "patent US20250041438A1",
  "about": "“ANTIBODY-DRUG CONJUGATE” (NOVELTY NOBILITY INC., priority 2022, published 2025)",
  "key": {"GIST-T1 cells": {"tested_on": "GIST-T1 cells", "type": "in vivo", "details": "imatinib 100 mg/kg p.o. D0-D29"}, "GIST-430/654 cells": {"tested_on": "GIST-430/654 cells", "test": "In vivo efficacy against imatinib-resistant GIST, GIST-430/654 cell xenograft model", "set-up": "species or system mice", "details": "day 49; imatinib 100 mg/kg p.o."}, "SCLC-H526 cells": {"tested_on": "SCLC-H526 cells", "test": "In vivo efficacy against SCLC, SCLC-H526 xenograft model", "set-up": "species or system mice", "details": "day 21; imatinib 100 mg/kg p.o.", "experimental": "In order to evaluate the efficacy of ADC substances against SCLC, an experiment was performed. The SCLC-H526 (NCI-H526, stage E, carcinoma; variant small cell lung cancer, c-Kit overexpression) xenograft model was used."}, "HMC 1.2 cells": {"tested_on": "HMC 1.2 cells", "test": "In vivo efficacy against mast cell tumor, HMC 1.2 xenograft model", "set-up": "species or system mice", "details": "day 17; imatinib 100 mg/kg p.o."}, "Kasumi-1 cells": {"tested_on": "Kasumi-1 cells", "test": "In vivo efficacy against AML, Kasumi-1 xenograft model", "set-up": "species or system mice", "details": "day 17; imatinib 100 mg/kg p.o.", "experimental": "The experiment was performed in the same manner as in Example 5, except that Kasumi-1 cells (3×10^6/100 […]/head/serum free, RPMI1640 medium) in 50% Matrigel (Corning, 354248, NY, USA) were used. The mice were enrolled in this study on day 29 after transplantation, and the average tumor volume was about 170 mm^3 (day 0)."}},
  "data": [
    {"smiles": "Cc1ccc(NC(=O)c2ccc(CN3CCN(C)CC3)cc2)cc1Nc1nccc(-c2cccnc2)n1", "note": "[imatinib, reference compound]", "values": [
      {"measurement": "tumor weight after sacrifice, decrease compared to the control (vehicle)", "setting": "GIST-T1 cells", "result": "about 59%"},
      {"measurement": "tumor growth inhibition compared to the control (vehicle), in words", "setting": "GIST-430/654 cells", "result": "little inhibition of tumor growth"},
      {"measurement": "tumor growth inhibition compared to the control (vehicle), in words", "setting": "SCLC-H526 cells", "result": "little inhibition of tumor growth"},
      {"measurement": "tumor growth inhibition, in words", "setting": "HMC 1.2 cells", "result": "little inhibition of tumor growth"},
      {"measurement": "tumor growth inhibition compared to the control (vehicle), in words", "setting": "Kasumi-1 cells", "result": "little inhibition of tumor growth"}
    ]}
  ]
}
